# In patent publication US6737383B1, “Herbicidal oxadiazolidines” (priority 1999, dated 2004):
# Assays:
# crabgrass = test: Test B pre/postemergence crabgrass; type: in vivo, Digitaria sanguinalis
# In short: (§1)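 Test chemicals in a non-phytotoxic solvent mixture with surfactant were sprayed preemergence onto planted seeds and postemergence onto plants 2 to 18 cm tall (1- to 4-leaf stage). After twelve to sixteen days in a greenhouse, injury was visually rated against untreated controls from 0 (no effect) to 10 (complete control).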
# rice = test: Test B flood test rice; type: in vivo, Oryza sativa
# In short: (§2)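 Flood test on plants grown to the 2-leaf stage; treated plants kept in greenhouse twelve to sixteen days, then visually rated against controls on a 0 (no effect) to 10 (complete control) scale.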
# bamyardgrass = test: Test B flood test barnyardgrass; type: in vivo, Echinochloa crus-galli
# In short: as §2
# bedstraw = test: Test B pre/postemergence bedstraw; type: in vivo, Galium aparine
# In short: as §1
# giant foxtail = test: Test B pre/postemergence giant foxtail; type: in vivo, Setaria faberii
# In short: as §1
# surinam grass = test: Test B pre/postemergence surinam grass; type: in vivo, Brachiaria decumbens
# In short: as §1
# wheat = test: Test B pre/postemergence wheat; type: in vivo, Triticum aestivum
# In short: as §1
# pigweed = test: Test B pre/postemergence pigweed; type: in vivo, Amaranthus retroflexus
# In short: as §1
# purple nutsedge = test: Test B pre/postemergence purple nutsedge; type: in vivo, Cyperus rotundus
# In short: as §1
# wild oat = test: Test B pre/postemergence wild oat; type: in vivo, Avena fatua
# In short: as §1
# sugar beet = test: Test B pre/postemergence sugar beet; type: in vivo, Beta vulgaris
# In short: as §1
# blackgrass = test: Test B pre/postemergence blackgrass; type: in vivo, Alopecurus myosuroides
# In short: as §1
# corn = test: Test B pre/postemergence corn; type: in vivo, Zea mays
# In short: as §1
# smallflower flatsedge = test: Test B flood test smallflower flatsedge; type: in vivo, Cyperus difformis
# In short: as §2
# rape = test: Test B pre/postemergence rape; type: in vivo, Brassica napus
# In short: as §1
# morningglory = test: Test B pre/postemergence morningglory; type: in vivo, Ipomoea hederacea
# In short: as §1
# [1] = Postemergence, Rate 62 g/ha, scale 0 to 10, 0 is no effect, 10 is complete control
# [2] = Postemergence, Rate 250 g/ha, scale 0 to 10, 0 no effect, 10 complete control
# [3] = Preemergence, Rate 62 g/ha, scale 0 to 10 (0 no effect, 10 complete control)
# [4] = Preemergence, Rate 125 g/ha, scale 0 to 10 (0 no effect, 10 complete control)
# [5] = Preemergence, Rate 250 g/ha, scale of 0 to 10 where 0 is no effect and 10 is complete control
# [6] = Preemergence, Rate 500 g/ha, scale 0 (no effect) to 10 (complete control)
# [7] = Rate 125 g/ha, Postemergence, scale 0 to 10, 0 no effect, 10 complete control
# [8] = Rate 500 g/ha, Postemergence, scale 0 to 10, 0 no effect, 10 complete control
# [9] = Rate 125 g/ha, Postemergence section (flood test species), scale 0 to 10, 0 no effect, 10 complete control
# [10] = Rate 500 g/ha, listed under Postemergence (flood test species), scale 0 to 10, 0 no effect, 10 complete control
# [11] = flood test, listed under Postemergence, Rate 250 g/ha, scale 0 to 10, 0 no effect, 10 complete control
smiles,measurement,setting,value
COc1cccc(C)c1-n1c(=O)on(C(=O)N(c2ccc(F)cc2F)C(C)C)c1=O [Compound 74],Crabgrass plant response rating,crabgrass; [1],0
same,Crabgrass plant response rating,crabgrass; [2],4
same,Crabgrass plant response rating,crabgrass; [3],2
same,"Plant response rating, Crabgrass",crabgrass; [4],2
same,"Plant response rating, Crabgrass",crabgrass; [5],5
same,Crabgrass plant response rating,crabgrass; [6],8
same,Crabgrass plant response rating,crabgrass; [7],2
same,Crabgrass plant response rating,crabgrass; [8],7
same,Rice plant response rating,rice; [1],0
same,Rice plant response rating,rice; [9],0
same,Rice plant response rating,rice; [10],0
same,Rice plant response rating,rice; [11],0
same,Barnyardgrass plant response rating,bamyardgrass; [1],0
same,Barnyardgrass plant response rating,bamyardgrass; [9],0
same,Barnyardgrass plant response rating,bamyardgrass; [10],0
same,Barnyardgrass plant response rating,bamyardgrass; [11],0
same,Bedstraw plant response rating,bedstraw; [1],0
same,Bedstraw plant response rating,bedstraw; [2],5
same,Bedstraw plant response rating,bedstraw; [3],0
same,"Plant response rating, Bedstraw",bedstraw; [4],0
same,"Plant response rating, Bedstraw",bedstraw; [5],0
same,Bedstraw plant response rating,bedstraw; [6],0
same,Bedstraw plant response rating,bedstraw; [7],0
same,Bedstraw plant response rating,bedstraw; [8],8
same,Giant foxtail plant response rating,giant foxtail; [1],0
same,Giant foxtail plant response rating,giant foxtail; [3],3
same,"Plant response rating, Giant foxtail",giant foxtail; [4],7
same,"Plant response rating, Giant foxtail",giant foxtail; [5],8
same,Giant foxtail plant response rating,giant foxtail; [6],10
same,Giant foxtail plant response rating,giant foxtail; [7],0
same,Giant foxtail plant response rating,giant foxtail; [8],2
same,B. signalgrass plant response rating,surinam grass; [1],0
same,B. signalgrass plant response rating,surinam grass; [2],0
same,B. signalgrass plant response rating,surinam grass; [3],0
same,"Plant response rating, B. signalgrass",surinam grass; [4],0
same,"Plant response rating, B. signalgrass",surinam grass; [5],0
same,B. signalgrass plant response rating,surinam grass; [6],0
same,B. signalgrass plant response rating,surinam grass; [7],0
same,B. signalgrass plant response rating,"surinam grass; Rate 500 g/ha, Postemergence, scale of 0 to 10 where 0 is no effect and 10 is complete control",2
same,Wheat plant response rating,wheat; [1],0
same,Wheat plant response rating,wheat; [2],0
same,Wheat plant response rating,wheat; [3],0
same,"Plant response rating, Wheat",wheat; [4],0
same,"Plant response rating, Wheat",wheat; [5],0
same,Wheat plant response rating,wheat; [6],0
same,Wheat plant response rating,wheat; [7],0
same,Wheat plant response rating,wheat; [8],3
same,Redroot pigweed plant response rating,pigweed; [1],0
same,Redroot pigweed plant response rating,pigweed; [2],0
same,Redroot pigweed plant response rating,pigweed; [3],0
same,"Plant response rating, Redroot pigweed",pigweed; [4],0
same,"Plant response rating, Redroot pigweed",pigweed; [5],0
same,Redroot pigweed plant response rating,pigweed; [6],3
same,Redroot pigweed plant response rating,pigweed; [7],0
same,Redroot pigweed plant response rating,pigweed; [8],0
same,Nutsedge plant response rating,purple nutsedge; [1],0
same,Nutsedge plant response rating,purple nutsedge; [2],0
same,Nutsedge plant response rating,purple nutsedge; [3],0
same,"Plant response rating, Nutsedge",purple nutsedge; [4],0
same,"Plant response rating, Nutsedge",purple nutsedge; [5],0
same,Nutsedge plant response rating,purple nutsedge; [6],0
same,Nutsedge plant response rating,purple nutsedge; [7],0
same,Nutsedge plant response rating,purple nutsedge; [8],0
same,Wild oats plant response rating,wild oat; [1],0
same,Wild oats plant response rating,wild oat; [2],0
same,Wild oats plant response rating,wild oat; [3],0
same,"Plant response rating, Wild oats",wild oat; [4],0
same,"Plant response rating, Wild oats",wild oat; [5],0
same,Wild oats plant response rating,wild oat; [6],0
same,Wild oats plant response rating,wild oat; [7],0
same,Wild oats plant response rating,wild oat; [8],2
same,Sugarbeets plant response rating,sugar beet; [1],0
same,Sugarbeets plant response rating,sugar beet; [2],0
same,Sugarbeets plant response rating,sugar beet; [3],0
same,"Plant response rating, Sugarbeets",sugar beet; [4],0
same,"Plant response rating, Sugarbeets",sugar beet; [5],2
same,Sugarbeets plant response rating,sugar beet; [6],4
same,Sugarbeets plant response rating,sugar beet; [7],0
same,Sugarbeets plant response rating,sugar beet; [8],0
same,Blackgrass plant response rating,blackgrass; [1],0
same,Blackgrass plant response rating,blackgrass; [2],0
same,Blackgrass plant response rating,blackgrass; [3],0
same,"Plant response rating, Blackgrass",blackgrass; [4],0
same,"Plant response rating, Blackgrass",blackgrass; [5],0
same,Blackgrass plant response rating,blackgrass; [6],0
same,Blackgrass plant response rating,blackgrass; [7],0
same,Blackgrass plant response rating,blackgrass; [8],3
same,Corn plant response rating,corn; [1],0
same,Corn plant response rating,corn; [2],0
same,Corn plant response rating,corn; [3],0
same,"Plant response rating, Corn",corn; [4],0
same,"Plant response rating, Corn",corn; [5],0
same,Corn plant response rating,corn; [6],0
same,Corn plant response rating,corn; [7],0
same,Corn plant response rating,corn; [8],0
same,S. Flatsedge plant response rating,smallflower flatsedge; [1],0
same,S. Flatsedge plant response rating,smallflower flatsedge; [9],0
same,S. Flatsedge plant response rating,smallflower flatsedge; [10],0
same,S. Flatsedge plant response rating,smallflower flatsedge; [11],0
same,Rape plant response rating,rape; [1],0
same,Rape plant response rating,rape; [2],0
same,Rape plant response rating,rape; [3],0
same,"Plant response rating, Rape",rape; [4],0
same,"Plant response rating, Rape",rape; [5],0
same,Rape plant response rating,rape; [6],5
same,Rape plant response rating,rape; [7],0
same,Rape plant response rating,rape; [8],2
same,Morningglory plant response rating,morningglory; [1],2
same,Morningglory plant response rating,morningglory; [2],3
same,Morningglory plant response rating,morningglory; [3],0
same,"Plant response rating, Morningglory",morningglory; [4],0
same,"Plant response rating, Morningglory",morningglory; [5],0
same,Morningglory plant response rating,morningglory; [6],0
same,Morningglory plant response rating,morningglory; [7],2
same,Morningglory plant response rating,morningglory; [8],4
